Assays:
corn/maize (ZEAMX) = assay: Postemergence greenhouse trial, % visual injury on corn/maize; assay type: in vivo, Zea mays; conditions: for % visual injury, observed (Ob): ZEAMX; for % visual injury, Ob: alone, 35 g/ha
Experimental: (§1) Seeds of the desired test plant species were planted in Sun Gro MetroMix® 306 planting mixture, which typically has a pH of 6.0 to 6.8 and an organic matter content of about 30 percent, in plastic pots with a surface area of 103.2 square centimeters (cm^2). When required to ensure good germination and healthy plants, a fungicide treatment and/or other chemical or physical treatment was applied. The plants were grown for 7-36 days (d) in a greenhouse with an approximate 14-hour (h) photoperiod which was maintained at about 23° C. during the day and 22° C. during the night. Nutrients and water were added on a regular basis and supplemental lighting was provided with overhead metal halide 1000-Watt lamps as necessary. The plants were employed for testing when they reached the second or third true leaf stage.
(§2) Weighed amounts of technical material were dissolved in a volume of 97:3 volume per volume (v/v) acetone/dimethyl sulfoxide (DMSO) to stock solutions. […] The concentrated stock solutions were diluted with an aqueous mixture of 1.5% v/v of Agri-dex crop oil concentrate to provide the appropriate application rates. Compound requirements are based upon a 12 milliliter (mL) application volume at a rate of 187 liters per hectare (L/ha). Stocks solutions of the safeners were prepared following the same procedure. Spray solutions of the safeners and experimental compound mixtures were prepared by adding the stock solutions to the appropriate amount of dilution solution to form a 12 mL spray solution in two-way combinations. Formulated compounds were applied to the plant material with an overhead Mandel track sprayer equipped with 8002E nozzles calibrated to deliver 187 L/ha over an application area of 0.503 square meters (m^2) at a spray height of 18 inches (43 centimeters (cm)) above average plant canopy. Control plants were sprayed in the same manner with the solvent blank. All herbicide application (component a) rates are in g ae/ha and all safener (component b) rates are in g ai/ha.
(§3) The treated plants and control plants were placed in a greenhouse as described above and watered by sub-irrigation to prevent wash-off of the test compounds. After 20-22 d, the condition of the test plants as compared with that of the control plants was determined visually and scored on a scale of 0 to 100 percent where 0 corresponds to no injury and 100 corresponds to complete kill. The condition of the test plants was compared with that of the control plants as determined visually and scored on a scale of 0 to 100 percent, where 0 corresponds to no injury and 100 corresponds to complete kill. Colby's equation was used to determine the herbicidal effects expected from the mixtures.
(§4) The safener cloquintocet-mexyl was combined with compound 1, compound 2, compound 4, compound 5, and compound 6, and applied to corn/maize (ZEAMX) and spring wheat (TRZAS) and the phytotoxicity of the herbicidal compositions was measured. In addition, the efficacy of the herbicidal composition on velvetleaf (ABUTH, Abutilon theophrasti), pigweed (AMARE, Amaranthus retroflexus), winter rape (BRSNW, Brassica napus), lambsquarters (CHEAL, Chenopodium album), thistle (CIRAR, Cirsium arvense), nutsedge (CYPES, Cyperus esculentus), poinsettia (EPHHL, Euphorbia heterophylla), wild buckwheat (POLCO, Polygonum convolvulus), giant foxtail (SETFA, Setaria faberi), and chickweed (STEME, Stellaria media) was evaluated. […]

shepherd's purse (CAPBP) = assay: Postemergence greenhouse trial, % visual injury on shepherd's purse; assay type: in vivo, Capsella bursa-pastoris
Experimental: as §1, §2, §3
(§5) The safener cloquintocet-mexyl was combined with compound 1, compound 2, compound 3, compound 7, compound 8, compound 9, compound 10, compound 11, compound 12, compound 13, compound 14, compound 15, compound 16, compound 17, compound 18, compound 19, and compound 20, and applied to spring wheat (TRZAS), winter wheat (TRZAW), and spring barley (HORVS) and the phytotoxicity of the herbicidal compositions was measured. […]

cornflower (CENCY) = assay: Postemergence greenhouse trial, % visual injury on cornflower; assay type: in vivo, Centaurea cyanus or Cyanus segetum
Experimental: as §1, §2, §3, §5

nutsedge (CYPES) = assay: Postemergence greenhouse trial, % visual injury on nutsedge; assay type: in vivo, Cyperus esculentus; conditions: for % visual injury, observed (Ob): CYPES; for % visual injury, Ob: alone, 35 g/ha
Experimental: as §1, §2, §3, §4
The safener cloquintocet-acid and a number of agriculturally acceptable esters and salts (-mexyl, -dimethylammonium salt and -triethylammonium salt) were combined in varying ratios with compound 1 and applied to spring wheat (TRZAS), winter wheat (TRZAW), and spring barley (HORVS), and the phytotoxicity of the herbicidal compositions was measured. […]

poinsettia (EPHHL) = assay: Postemergence greenhouse trial, % visual injury on poinsettia; assay type: in vivo, Euphorbia heterophylla; conditions: alone, 35 g/ha
Experimental: as §1
Weighed amounts of technical material were dissolved in a volume of 97:3 volume per volume (v/v) acetone/dimethyl sulfoxide (DMSO) to stock solutions. […] The concentrated stock solutions were diluted with an aqueous mixture of 1.5% v/v of Agri-dex crop oil concentrate to provide the appropriate application rates. Compound requirements are based upon a 12 milliliter (mL) application volume at a rate of 187 liters per hectare (L/ha). Stocks solutions of the safeners were prepared following the same procedure. […]
as §3, with “Colby's equation was used to determine the herbicidal effects expected from the mixtures.” left out
as §4

wild chamomile (MATCH) = assay: Postemergence greenhouse trial, % visual injury on wild chamomile; assay type: in vivo, Matricaria chamomilla
Experimental: as §1, §2
as §3, with “mixtures. […]” for “mixtures.”

common sorghum (SORVU) = assay: Postemergence greenhouse trial, % visual injury on common sorghum; assay type: in vivo, Sorghum vulgare; conditions: for % visual injury, observed (Ob): SORVU
Experimental: as §1, §2
as §3, with “mixtures. […]” for “mixtures.”
The safener cloquintocet-acid and a number of agriculturally acceptable esters and salts (-mexyl, -dimethylammonium salt and -triethylammonium salt) were combined in varying ratios with compound 1 and applied to spring wheat (TRZAS), winter wheat (TRZAW), and spring barley (HORVS), and the phytotoxicity of the herbicidal compositions was measured. In addition, the efficacy of the herbicidal composition on pigweed (AMARE, Amaranthus retroflexus), nutsedge (CYPES, Cyperus esculentus), common sunflower (HELAN, Helianthus annuus), and common sorghum (SORVU, Sorghum vulgare).

[1] = CAPBP, compound 4.380 g/ha, CQC-m 0
[2] = CAPBP, compound 17.5 g/ha, CQC-m 0
[3] = CAPBP, compound 70 g/ha, CQC-m 0
[4] = CENCY, compound 4.380 g/ha, CQC-m 0
[5] = CENCY, compound 8.75 g/ha, CQC-m 0
[6] = CENCY, compound 17.5 g/ha, CQC-m 0
[7] = CENCY, compound 35 g/ha, CQC-m 0
[8] = CENCY, compound 70 g/ha, CQC-m 0

SMILES	% visual injury, Ob (corn/maize (ZEAMX)) [%]	% visual injury, Ob (shepherd's purse (CAPBP); alone, 4.375 g/ha) [%]	% visual injury, Ob (shepherd's purse (CAPBP); alone, 8.75 g/ha) [%]	% visual injury, Ob (shepherd's purse (CAPBP); alone, 17.5 g/ha) [%]	% visual injury, Ob (shepherd's purse (CAPBP); alone, 35 g/ha) [%]	% visual injury, Ob (shepherd's purse (CAPBP); alone, 70 g/ha) [%]	% visual injury, Ob (cornflower (CENCY); alone, 4.375 g/ha) [%]	% visual injury, Ob (cornflower (CENCY); alone, 8.75 g/ha) [%]	% visual injury, Ob (cornflower (CENCY); alone, 35 g/ha) [%]	% visual injury, Ob (nutsedge (CYPES)) [%]	% visual injury, Ob (poinsettia (EPHHL)) [%]	% visual injury, Ob (shepherd's purse (CAPBP); [1]) [%]	% visual injury, Ob (shepherd's purse (CAPBP); [2]) [%]	% visual injury, Ob (shepherd's purse (CAPBP); [3]) [%]	% visual injury, Ob (cornflower (CENCY); [4]) [%]	% visual injury, Ob (cornflower (CENCY); [5]) [%]	% visual injury, Ob (cornflower (CENCY); [6]) [%]	% visual injury, Ob (cornflower (CENCY); [7]) [%]	% visual injury, Ob (cornflower (CENCY); [8]) [%]	also measured
CCCCCC(C)OC(=O)COc1ccc(Cl)c2cccnc12 (centres unmarked) [CQC-m, cloquintocet-mexyl, reference compound]	0	0	0	0	0	0	0	0	0	0	0	–	–	–	–	–	–	–	–	% visual injury, observed (Ob) (corn/maize (ZEAMX); safener alone 2.5 g/ha): 0%; % visual injury, observed (Ob) (corn/maize (ZEAMX); safener alone 5 g/ha): 0%; % visual injury, observed (Ob) (corn/maize (ZEAMX); safener alone 10 g/ha): 0%; % visual injury, observed (Ob) (corn/maize (ZEAMX); safener alone 20 g/ha): 0%; % visual injury, observed (Ob) (nutsedge (CYPES); safener alone 2.5 g/ha): 0%; % visual injury, observed (Ob) (nutsedge (CYPES); safener alone 5 g/ha): 0%; % visual injury, observed (Ob) (nutsedge (CYPES); safener alone 10 g/ha): 0%; % visual injury, observed (Ob) (nutsedge (CYPES); safener alone 20 g/ha): 0%; % visual injury, Ob (wild chamomile (MATCH); compound 0, CQC-m 4.375 g/ha): 0%; % visual injury, Ob (wild chamomile (MATCH); compound 0, CQC-m 8.75 g/ha): 0%; % visual injury, Ob (wild chamomile (MATCH); compound 0, CQC-m 17.5 g/ha): 0%; % visual injury, Ob (wild chamomile (MATCH); compound 0, CQC-m 35 g/ha): 0%; % visual injury, Ob (wild chamomile (MATCH); compound 0, CQC-m 70 g/ha): 0%; % visual injury, observed (Ob) (common sorghum (SORVU); safener alone 2.5 g/ha): 0%; % visual injury, observed (Ob) (common sorghum (SORVU); safener alone 5 g/ha): 0%; % visual injury, observed (Ob) (common sorghum (SORVU); safener alone 10 g/ha): 0%; % visual injury, observed (Ob) (common sorghum (SORVU); safener alone 20 g/ha): 0%; % visual injury, Ob (common sorghum (SORVU); alone, 35 g/ha): 0%
CO/C=N/c1c(F)c(-c2ccc3cc[nH]c3c2F)nc(C(=O)OC)c1Cl [compound 10]	–	–	–	–	–	–	–	–	–	–	–	30	100	100	100	100	100	100	100	–
Nc1c(F)c(-c2ccc3cc[nH]c3c2F)nc(C(=O)O)c1Cl [compound 1]	40	70	100	100	100	100	100	100	100	80	–	–	–	–	–	–	–	–	–	% visual injury, observed (Ob) (corn/maize (ZEAMX); compound 1 alone 20 g/ha): 3%; % visual injury, observed (Ob) (corn/maize (ZEAMX); compound 1 alone 40 g/ha): 30%; % visual injury, observed (Ob) (nutsedge (CYPES); compound 1 alone 20 g/ha): 35%; % visual injury, observed (Ob) (nutsedge (CYPES); compound 1 alone 40 g/ha): 35%; % visual injury, observed (Ob) (common sorghum (SORVU); compound 1 alone 20 g/ha): 18%; % visual injury, observed (Ob) (common sorghum (SORVU); compound 1 alone 40 g/ha): 68%
Nc1c(F)c(-c2ccc3cc[nH]c3c2F)nc(C(=O)OCc2ccccc2)c1Cl [compound 2]	35	–	–	–	–	–	–	–	–	30	100	–	–	–	–	–	–	–	–	% visual injury, observed (Ob) (wild chamomile (MATCH); compound 2 4.380 + CQC-m 0 g/ha): 30%; % visual injury, observed (Ob) (wild chamomile (MATCH); compound 2 8.75 + CQC-m 0 g/ha): 58%; % visual injury, observed (Ob) (wild chamomile (MATCH); compound 2 17.5 + CQC-m 0 g/ha): 91%; % visual injury, observed (Ob) (wild chamomile (MATCH); compound 2 35 + CQC-m 0 g/ha): 98%; % visual injury, observed (Ob) (wild chamomile (MATCH); compound 2 70 + CQC-m 0 g/ha): 100%
COC(=O)c1nc(-c2ccc3cc[nH]c3c2F)c(F)c(N)c1OC [compound 12]	–	–	–	–	–	–	–	–	–	–	–	70	100	100	85	95	100	100	100	% visual injury, Ob (wild chamomile (MATCH); compound 4.380 g/ha, CQC-m 0): 5%; % visual injury, Ob (wild chamomile (MATCH); compound 8.75 g/ha, CQC-m 0): 3%; % visual injury, Ob (wild chamomile (MATCH); compound 17.5 g/ha, CQC-m 0): 7%; % visual injury, Ob (wild chamomile (MATCH); compound 35 g/ha, CQC-m 0): 10%; % visual injury, Ob (wild chamomile (MATCH); compound 70 g/ha, CQC-m 0): 13%

Reference: patent publication US9763445B2, “Safened herbicidal compositions comprising a pyridine carboxylic acid herbicide” (Dow AgroSciences, LLC, priority 2014, dated 2017)
